From patent US20040122062A1, “Use of growth hormone secretagogues for treatment of physical performance decline” (Pfizer Inc, priority 2000, published 2004)
Where a SMILES comes first, the peptide text is derived from it. [ ]: non-standard residue; d: D form. d2Nal = N[C@H](Cc1ccc2ccccc2c1)C(=O)O; Aib = CC(C)(N)C(=O)O

Columns and labels:
[1] = 6-Minute Walk Test in a clinical study; assay type: in vivo, human; details: all dose groups, week 6 and week 12
Method: One physical performance endpoint in a clinical study was to determine whether the test compound, 2-amino-N-[2-(3a-(R)-benzyl-2-methyl-3-oxo-2,3,3a,4,6,7-hexahydro-pyrazolo[4,3-c]pyridin-5-yl)-1-(R)-benzyloxymethyl-2-oxo-ethyl]-isobutyramide, L-tartrate, increased the six-minute walk distance in subjects with mild-to-moderate congestive heart failure. There were four dose groups, 3 mg po tid; 6 mg po tid; 10 mg po q am, and placebo.
The six-minute walk study was performed at baseline, week 6, and week 12. The purpose of this test was to determine how many feet an individual can walk within six-minutes.

[2] = canines during remobilization; cited from earlier work
[3] = obese young males; cited from earlier work
[4] = adult female rats; cited from earlier work

Compound: CN1N=C2CCN(C(=O)[C@@H](COCc3ccccc3)NC(=O)C(C)(C)N)C[C@@]2(Cc2ccccc2)C1=O.O=C(O)C(O)C(O)C(=O)O [2-amino-N-[2-(3a-(R)-benzyl-2-methyl-3-oxo-2,3,3a,4,6,7-hexahydro-pyrazolo[4,3-c]pyridin-5-yl)-1-(R)-benzyloxymethyl-2-oxo-ethyl]-isobutyramide, L-tartrate]
- six-minute walk distance, change from baseline [1]: increased in all dose groups at both 6 and 12 weeks

Compound: CC(C)(N)C(=O)N[C@H](COCc1ccccc1)C(=O)N1CCC2(CC1)CN(S(C)(=O)=O)c1ccccc12 [MK-0677]
- levels of serum insulin-like growth factor-I [2]: elevated
- size and strength of the quadriceps muscle [2]: increased
- markers of bone formation and bone resorption [3]: increases

Compound: CC(C)(N)C(=O)N[C@@H](Cc1c[nH]cn1)C(=O)N[C@H](Cc1ccc2ccccc2c1)C(=O)N[C@H](Cc1ccccc1)C(=O)N[C@@H](CCCCN)C(N)=O [ipamorelin] (H-[Aib]H[d2Nal][dF]K-NH2)
- bone mass [4]: have the capacity to increase bone mass

Compound: GHRP-6
- bone mass [4]: have the capacity to increase bone mass
